Measured values reported in ChEMBL document CHEMBL1201862, “PubChem BioAssay data set” (2004).
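Assay format: 96-well plates, 48-hour exposure. GI50: concentration for 50% inhibition of growth.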 Active and inactive are the calls of the source. Rule as the data show it: active = GI50 up to about 1.1 µM and inactive = higher.

Tests used:
Experiment in all cases: inhibition of tumour cell growth, NCI panel, 48 h
NCI-H522 = tested on: NCI-H522
HCT-116 = tested on: HCT-116
SK-OV-3 = tested on: SK-OV-3
A549 = tested on: A549
SK-MEL-5 = tested on: SK-MEL-5
HOP-62 = tested on: HOP-62
LXFL 529 = tested on: LXFL 529
HCT-15 = tested on: HCT-15
CCRF-CEM = tested on: CCRF-CEM
SW-620 = tested on: SW-620
HL-60 = tested on: HL-60
DMS-273 = tested on: DMS-273
Malme-3M = tested on: Malme-3M
DMS-114 = tested on: DMS-114
SNB-19 = tested on: SNB-19
HOP-18 = tested on: HOP-18
ACHN = tested on: ACHN
UACC-257 = tested on: UACC-257
SK-MEL-2 = tested on: SK-MEL-2
HOP-92 = tested on: HOP-92
M14 = tested on: M14
RXF 393 = tested on: RXF 393
A498 = tested on: A498
UO-31 = tested on: UO-31
OVCAR-5 = tested on: OVCAR-5
XF498 = tested on: XF498
KM-20L2 = tested on: KM-20L2
SF-539 = tested on: SF-539
OVCAR-3 = tested on: OVCAR-3
786-0 = tested on: 786-0
EKVX = tested on: EKVX
MOLT-4 = tested on: MOLT-4
NCI-H460 = tested on: NCI-H460
SF-268 = tested on: SF-268
KM12 = tested on: KM12
TK-10 = tested on: TK-10
K562 = tested on: K562
SR = tested on: SR
COLO 205 = tested on: COLO 205
NCI-H23 = tested on: NCI-H23
RPMI-8226 = tested on: RPMI-8226
SNB-78 = tested on: SNB-78
HCC 2998 = tested on: HCC 2998
SF-295 = tested on: SF-295
LOX IMVI = tested on: LOX IMVI
UACC-62 = tested on: UACC-62
DLD-1 = tested on: DLD-1
SK-MEL-28 = tested on: SK-MEL-28
OVCAR-8 = tested on: OVCAR-8
M19-MEL = tested on: M19-MEL
SN12C = tested on: SN12C
U-251 = tested on: U-251

Measured: GI50

NC(=O)C(N)=O
inactive: NCI-H522 > 100 µM | HCT-116 > 100 µM | SK-OV-3 > 100 µM | A549 > 100 µM | SK-MEL-5 > 100 µM | HOP-62 > 100 µM | LXFL 529 > 100 µM | CCRF-CEM > 100 µM | SW-620 > 100 µM | HL-60 > 100 µM | DMS-273 > 100 µM | Malme-3M > 100 µM | DMS-114 > 100 µM | SNB-19 > 100 µM | HOP-18 > 100 µM | ACHN > 100 µM | UACC-257 > 100 µM | SK-MEL-2 > 100 µM | HOP-92 > 100 µM | M14 > 100 µM | RXF 393 > 100 µM | A498 > 100 µM | UO-31 > 100 µM | OVCAR-5 > 100 µM | XF498 > 100 µM | KM-20L2 > 100 µM | SF-539 > 100 µM | OVCAR-3 > 100 µM | 786-0 > 100 µM | EKVX > 100 µM | MOLT-4 > 100 µM | NCI-H460 > 100 µM | SF-268 > 100 µM | KM12 > 100 µM | TK-10 > 100 µM | K562 > 100 µM | SR > 100 µM | COLO 205 > 100 µM | NCI-H23 > 100 µM | RPMI-8226 > 100 µM | SNB-78 > 100 µM | HCC 2998 > 100 µM | SF-295 > 100 µM | LOX IMVI > 100 µM | UACC-62 > 100 µM | DLD-1 > 100 µM | SK-MEL-28 > 100 µM | OVCAR-8 > 100 µM | M19-MEL > 100 µM | SN12C > 100 µM | U-251 > 100 µM
> 100 µM: HCT-15
